Reference: US20260167829A1, “USES OF DIAZIRINES” (Nanyang Technological University, priority 2022, published 2026)
“Also recorded” adds a separate entry of the source. Values belong to the compound of their own block, whether it stands above or below them.

Columns and labels:
[1] = UV/VIS spectroscopy, molar absorption; format: physicochemical
Protocol: The solution is then added to UV/VIS quartz tube with a path length of 1 cm. The background is normalized to chloroform. The samples are tested in the wavelength range of 200 to 800 nm at a medium scan rate of 2 nm, and a slit width of 0.5 nm. Data are collected in absorbance values (A) against wavelength (nm).

[2] = Stability of PEGDA/PTHT mixtures with photoinitiator under indoor light; format: physicochemical; conditions: PEGDA+PTHT 2:1 binary mixture, 1 mol % initiator, no solvent
Protocol: Polyethylene glycol diacrylate (Mw˜575 Da), referred to as “PEGDA” further in text is used in all the experiments. PEGDA/PTHT samples are prepared by magnetic stirring of PEGDA and PTHT polymer blend (2:1 molar ratio) with diazirine photoinitiators (1 mol % DzOH or 1 mol % CG relative to the total number of mols of PEGDA in each sample). Samples with standard TPO photoinitiator (1 mol %) are used as controls. The mixing of compounds (PEGDA+PTHT) in binary mixture with photoinitiators (DzOH, CG and TPO) is completed without any solvent.

[3] = Photorheometry of CaproGlu binary formulations (365 nm UVA, 10 J·cm^−2); format: physicochemical; conditions: neat component of Table 3; steady state viscosity, shear rate 10 sec^−1
Protocol: Rheometry was carried out on an Anton Paar MCR 102 rheometer (Anton Paar, Singapore) with a custom photocuring setup as described previously (Djordjevic, I. et al., Biomaterials 2020, 260, 120215). A PP10 parallel plate stainless steel probe was used, with a 0.2 mm measuring gap. Steady State Viscosity was measured first (shear rate 10 sec^−1), followed by a dynamic oscillatory strain measurement during photocuring (UV ON at 30 seconds, off at 2 minutes 10 seconds, 1% shear, frequency 10 Hz, amplitude 1%), then an Amplitude Sweep (shear 1-1000-%, angular frequency 10 rad-sec^−1). In reporting of G′ and G″, a smoothing function was applied. The UV lamp used was a Thor Labs 365 nm SOLIS High-Power LED connected to a DC2200 LED Driver set to constant current mode. […]
Covalent crosslinking was monitored via complex shear modulus (G*), which was measured on a custom photorheometer fitted with a narrow-band 365 nm UV diode and normal-force load cell. […] Dynamic viscosity, G′ (storage modulus), G″ (loss modulus), and normal force (caused by expansion/contraction of polymer matrix) were continually monitored and subsequently analysed for yield stress/strain with an amplitude sweep. Functional groups were qualitatively assessed before and after curing via ATR-FTIR spectroscopy to observe consumption. […]

[4] = system: 3T3 fibroblasts or HeLa cell lines; assay: In vitro biocompatibility Alamar Blue assay; format: cell-based; conditions: 48 hours of incubation; all concentrations (0.01-1 mM)
Protocol: Cells seeded in wells (5 replicates for each group) with 100 μl DMEM media (10% FBS, 1% antibiotic). Incubated for 24 and 48 h, in a 96-well plate, 10000 cells/well, using 3T3 fibroblasts or HeLa cell lines. After 24 h, DMEM media replaced with 100 μl DMEM with dissolved test compounds (Test compounds dissolved in DMEM media to obtain final conc. of 1, 0.5, 0.1, 0.01 mM). After 24 hours of incubation, 10 μl resazurin solution (0.015%) dissolved in PBS was added to the wells followed by incubation for 3 hours. Readings taken post 24 hours and 48 hours of sample addition. (Ex-570 nm, Em-590 nm), Controls: Blank media without cells, Media with cells, Readings for (Blank media without cells) subtracted from all groups, Readings normalized against (media with cells group—100%)

absorbance above 400 nm ([1]; previous UV-Vis studies): does not have an absorbance above 400 nm
SMILES: O=C(O)c1ccc(C2(C(F)(F)F)N=N2)cc1 [DzCOOH, 4-[3-(Trifluoromethyl)-3H-diazirin-3-yl]benzoic acid]

molar absorption coefficient ([1]; @ 381 nm): 520 cm^−1M^−1
SMILES: Cc1cc(C)c(C(=O)P(=O)(c2ccccc2)c2ccccc2)c(C)c1 [TPO, Diphenyl(2,4,6-trimethylbenzoyl)phosphine oxide]
stability under indoor lighting [2]: activated under indoor light; also recorded: unstable and prematurely crosslinked under fluorescent lights and white LED emitters

SMILES: O=C(CCS)OCC(COC(=O)CCS)(COC(=O)CCS)COC(=O)CCS [PTHT, pentaerythritol tetrakis 3-mercaptopropionate]
viscosity [3]: [drawing 17] PTHT, Mw = 488.66 g · mol^-1, viscosity = 667 ± 49 mPa · s mPa·s

SMILES: OCc1ccc(C2(C(F)(F)F)N=N2)cc1 [DzOH, 4-[3-(Trifluoromethyl)-3H-diazirin-3-yl]benzyl alcohol]
Cell viability [4]: not significantly different from control
